Experimental data from patent US10745382B2 (BRISTOL-MYERS SQUIBB COMPANY, priority 2015, dated 2020).

Biological target: T1, PD-1/PD-L1 (Homo sapiens, UniProt Q9NZQ7)
T1 construct: made in house; host or cells: HEK293T
Assay: PD-1/PD-L1 Homogenous Time-Resolved Fluorescence (HTRF) binding assay
Conditions: PD-L1-His 10 nM, PD-1-Ig 20 nM; value given as range class; read-out: Range or IC50
Method in brief: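 Detection by europium cryptate anti-Ig plus APC anti-His (1 nM and 20 nM final) with HTRF signal. Buffer was dPBS, 0.1% BSA, 0.05% Tween-20.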

T1 sequence (Q9NZQ7 with tags, fused parts or gaps): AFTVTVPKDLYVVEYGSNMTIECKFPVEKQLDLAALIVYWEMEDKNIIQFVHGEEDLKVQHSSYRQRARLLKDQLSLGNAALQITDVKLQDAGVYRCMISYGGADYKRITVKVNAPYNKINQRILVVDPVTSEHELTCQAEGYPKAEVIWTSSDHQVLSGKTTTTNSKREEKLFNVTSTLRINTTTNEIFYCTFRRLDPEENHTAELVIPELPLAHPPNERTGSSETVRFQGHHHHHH

Structure (SMILES)	IC50
Cc1c(OCCCN2CC[C@@H](O)C2)cccc1-c1cccc(COc2cc(OCc3cncc(C#N)c3)c(CN(CCc3cncc(C#N)c3)C(CO)CO)cc2Cl)c1Cl [Example 2312, (R)-5-(2-((5-chloro-4-((2-chloro-3′-(3-(3-hydroxypyrrolidin-1-yl)propoxy)-2′-methyl-[1,1′-biphenyl]-3-yl)methoxy)-2-((5-cyanopyridin-3-yl)methoxy)benzyl)(1,3-dihydroxypropan-2-yl)amino)ethyl)nicotinonitrile]	0.21 to 10 nM
C=CCOc1cc(OCc2cccc(-c3cccc(OCCCN4CC[C@@H](O)C4)c3C)c2Cl)c(Cl)cc1CNC(CO)CO [Example 2313, (R)-2-((2-(allyloxy)-5-chloro-4-((2-chloro-3′-(3-(3-hydroxypyrrolidin-1-yl)propoxy)-2′-methyl-[1,1′-biphenyl]-3-yl)methoxy)benzyl)amino)propane-1,3-diol]	0.21 to 10 nM
Cc1c(OCCCN2CC[C@@H](O)C2)cccc1-c1cccc(COc2cc(OCC#N)c(CNC(CO)CO)cc2Cl)c1Cl [Example 2314, (R)-2-(4-chloro-5-((2-chloro-3′-(3-(3-hydroxypyrrolidin-1-yl)propoxy)-2′-methyl-[1,1′-biphenyl]-3-yl)methoxy)-2-(((1,3-dihydroxypropan-2-yl)amino)methyl)phenoxy)acetonitrile]	0.21 to 10 nM
Cc1c(OCCCN2CC[C@@H](O)C2)cccc1-c1cccc(COc2cc(OCC(=N)N3CC[C@@H](O)C3)c(CNC(CO)CO)cc2Cl)c1Cl [Example 2315, 2-((5-chloro-4-((2-chloro-3′-(3-((R)-3-hydroxypyrrolidin-1-yl)propoxy)-2′-methyl-[1,1′-biphenyl]-3-yl)methoxy)-2-(2-((R)-3-hydroxypyrrolidin-1-yl)-2-iminoethoxy)benzyl)amino)propane-1,3-diol]	0.21 to 10 nM
Cc1c(OCCCN2CC[C@@H](O)C2)cccc1-c1cccc(COc2cc(OCC(N)=O)c(CNC(CO)CO)cc2Cl)c1Cl [Example 2316, (R)-2-(4-chloro-5-((2-chloro-3′-(3-(3-hydroxypyrrolidin-1-yl)propoxy)-2′-methyl-[1,1′-biphenyl]-3-yl)methoxy)-2-(((1,3-dihydroxypropan-2-yl)amino)methyl)phenoxy)acetamide]	0.21 to 10 nM
Cc1c(OCCCN2CC[C@@H](O)C2)cccc1-c1cccc(COc2cc(OCC(=O)N(C)C)c(CNC(CO)CO)cc2Cl)c1Cl [Example 2317, (R)-2-(4-chloro-5-((2-chloro-3′-(3-(3-hydroxypyrrolidin-1-yl)propoxy)-2′-methyl-[1,1′-biphenyl]-3-yl)methoxy)-2-(((1,3-dihydroxypropan-2-yl)amino)methyl)phenoxy)-N,N-dimethylacetamide]	0.21 to 10 nM
Cc1c(OCCCN2CC[C@@H](O)C2)cccc1-c1cccc(COc2cc(OCC(F)F)c(CNC(CO)CO)cc2Cl)c1Cl [Example 2318, (R)-2-((5-chloro-4-((2-chloro-3′-(3-(3-hydroxypyrrolidin-1-yl)propoxy)-2′-methyl-[1,1′-biphenyl]-3-yl)methoxy)-2-(2,2-difluoroethoxy)benzyl)amino)propane-1,3-diol]	0.21 to 10 nM
Cc1c(OCCCN2CC[C@@H](O)C2)cccc1-c1cccc(COc2cc(OCC3CC3)c(CNC(CO)CO)cc2Cl)c1Cl [Example 2319, (R)-2-((5-chloro-4-((2-chloro-3′-(3-(3-hydroxypyrrolidin-1-yl)propoxy)-2′-methyl-[1,1′-biphenyl]-3-yl)methoxy)-2-(cyclopropylmethoxy)benzyl)amino)propane-1,3-diol]	0.21 to 10 nM
Cc1c(OCCCN2CC[C@@H](O)C2)cccc1-c1cccc(COc2cc(OCC3CC3(F)F)c(CNC(CO)CO)cc2Cl)c1Cl (stereo partly drawn) [Example 2320, 2-((5-chloro-4-((2-chloro-3′-(3-((R)-3-hydroxypyrrolidin-1-yl)propoxy)-2′-methyl-[1,1′-biphenyl]-3-yl)methoxy)-2-((2,2-difluorocyclopropyl)methoxy)benzyl)amino)propane-1,3-diol]	0.21 to 10 nM
CC(C)=CCOc1cc(OCc2cccc(-c3cccc(OCCCN4CC[C@@H](O)C4)c3C)c2Cl)c(Cl)cc1CNC(CO)CO [Example 2321, (R)-2-((5-chloro-4-((2-chloro-3′-(3-(3-hydroxypyrrolidin-1-yl)propoxy)-2′-methyl-[1,1′-biphenyl]-3-yl)methoxy)-2-((3-methylbut-2-en-1-yl)oxy)benzyl)amino)propane-1,3-diol]	0.21 to 10 nM
Cc1c(COc2cc(OCc3cncc(C#N)c3)c(CNC(CO)CO)cc2Cl)cccc1-c1cccc(OC[C@H]2CCNC2)c1C [Example 2323, (S)-5-((4-chloro-2-(((1,3-dihydroxypropan-2-yl)amino)methyl)-5-((2,2′-dimethyl-3′-(pyrrolidin-3-ylmethoxy)-[1,1′-biphenyl]-3-yl)methoxy)phenoxy)methyl)nicotinonitrile]	0.21 to 10 nM
Cc1c(COc2cc(OCc3cncc(C#N)c3)c(CNC(C)(CO)CO)cc2Cl)cccc1-c1cccc(OCCCN2CC[C@@H](O)C2)c1C [Example 2324, (R)-5-((4-chloro-2-(((1,3-dihydroxy-2-methylpropan-2-yl)amino)methyl)-5-((3′-(3-(3-hydroxypyrrolidin-1-yl)propoxy)-2,2′-dimethyl-[1,1′-biphenyl]-3-yl)methoxy)phenoxy)methyl)nicotinonitrile]	0.21 to 10 nM
Cc1c(COc2cc(OCc3cncc(C#N)c3)c(CN(C)C(CO)CO)cc2Cl)cccc1-c1cccc(OCCCN2CC[C@@H](O)C2)c1C [Example 2325, (R)-5-((4-chloro-2-(((1,3-dihydroxypropan-2-yl)(methyl)amino)methyl)-5-((3′-(3-(3-hydroxypyrrolidin-1-yl)propoxy)-2,2′-dimethyl-[1,1′-biphenyl]-3-yl)methoxy)phenoxy)methyl)nicotinonitrile]	0.21 to 10 nM
Cc1c(COc2cc(OCc3cncc(C#N)c3)c(CNC(C)(C)C)cc2Cl)cccc1-c1cccc(OCCCN2CC[C@@H](O)C2)c1C [Example 2326, (R)-5-((2-((tert-butylamino)methyl)-4-chloro-5-((3′-(3-(3-hydroxypyrrolidin-1-yl)propoxy)-2,2′-dimethyl-[1,1′-biphenyl]-3-yl)methoxy)phenoxy)methyl)nicotinonitrile]	0.21 to 10 nM
Cc1c(COc2cc(OCc3cncc(C#N)c3)c(CN[C@@](C)(CO)C(=O)O)cc2Cl)cccc1-c1cccc(OCCCN2CC(=O)NC(=O)C2)c1C [Example 2327, (S)-2-((5-chloro-2-((5-cyanopyridin-3-yl)methoxy)-4-((3′-(3-(3,5-dioxopiperazin-1-yl)propoxy)-2,2′-dimethyl-[1,1′-biphenyl]-3-yl)methoxy)benzyl)amino)-3-hydroxy-2-methylpropanoic Acid]	0.21 to 10 nM
Cc1c(COc2cc(OCc3cncc(C#N)c3)c(CN[C@@](C)(CO)C(=O)O)cc2Cl)cccc1-c1cccc(OCCCN2CCN(C)C(=O)C2)c1C [Example 2328, (S)-2-((5-chloro-2-((5-cyanopyridin-3-yl)methoxy)-4-((2,2′-dimethyl-3′-(3-(4-methyl-3-oxopiperazin-1-yl)propoxy)-[1,1′-biphenyl]-3-yl)methoxy)benzyl)amino)-3-hydroxy-2-methylpropanoic Acid]	0.21 to 10 nM
